What was measured:
[1] = test system: IMR90 normal diploid fibroblasts; test: Northern blot of SISP-1 mRNA induction by genotoxic drugs; assay type: cell-based; settings: IMR90 cells; etoposide 50 μM or CPT 600 nM, 24-48 hours; FIG. 4A
Description: IMR90 normal diploid fibroblasts (Obtained from ATCC) were cultured in Dulbecco's modified Eagle's medium (DMEM, Invitrogen)) containing 10% fetal bovine serum (FBS, Hyclone), 100 units/ml of penicillin, and 100 μg/ml of streptomycin at 37° C. […] Then, total RNA was extracted, denatured, electrophoresed through a 1% agarose-formaldehyde gel and transferred to a nylon membrane. Hybridization was performed with ^32P-labeled probes, SISP1, p21 or 36B4 (a loading control) prepared by the randomly primed DNA labeling method.

[2] = test system: HCT116 colon carcinoma cells; test: Cell death Elisa (DNA fragmentation) after adenoviral SISP-1 infection; assay type: cell-based, human; settings: etoposide 30 μM, 24 hours, 12 hour post infection
Description: (§1) Next, the inventor investigated the apoptotic effects of SISP-1 expression in human colon cancer cells and breast carcinoma cells by using adenovirus expressing SISP-1. […] Adenoviruses expressing HA-tagged SISP-1 (Ad-SISP-1) or GFP (Ad-GFP as a control) were generated, amplified and titrated. HCT 116 colon carcinoma cells and MDAMB435 breast cancer cells were grown to 50-70% confluency and infected with recombinant adenovirus at multiplicity of infection (MOI) of 15-30. […] Then, cell death rate was measured by DNA fragmentation assay (Cell death Elisa kit, Roche).

[3] = test system: MDAMB435 breast cancer cells; test: as above; assay type: cell-based, human; settings: etoposide 30 μM, 24 hours, 12 hour post infection
Description: as §1

[4] = test system: U2OS osteosarcoma cells; test: Cell-Death Elisa, tetracycline-inducible SISP-1 plus etoposide; assay type: cell-based; settings: SISP-1 or etoposide (15 μM) alone, FIG. 9A
Description: U2OS-tet-on-SISP-1 cells were generated by isolating tetracycline regulated stable-clones expressing SISP-1 upon tetracycline addition (doxycycline, Sigma). U2OS-SISP-1 cells were cultured in the presence or absence of doxycycline (1 μg/ml) for 24 hours.

[5] = test system: U2OS osteosarcoma cells; test: Etoposide-induced cell death with inducible SISP-1 (FIG. 10); assay type: cell-based; settings: over 48 hours
Excerpt: (§2) The present inventor further examined whether SISP-1 could also sensitize U2OS cells that is known to be quite resistant to chemo-drugs.
(§3) The inventor re-evaluated this effect in a rapidly growing human bladder carcinoma cell line, EJ, since SISP-1 may be used a strong candidate as a new sensitizing molecule that improves the therapeutic efficacy and minimizes the toxicity of chemo-drugs. To further confirm the sensitizing effects of SISP-1 expression in a combination of chemo-drugs, we generated tumor cells containing the tetracycline-regulated inducible expression of SISP-1 using U2OS and EJ lines.

[6] = test system: EJ bladder carcinoma cells; test: as above; assay type: cell-based, human; settings: over 48 hours
Excerpt: as §2, §3

| Compound | expression of SISP-1 mRNA [1] | sensitization of SISP-1 overexpressing cells by etoposide [2] | sensitization of SISP-1 overexpressing cells by etoposide [3] | cell death by single treatment [4] | cell death by etoposide itself [5] | cell death by etoposide itself [6] |
| --- | --- | --- | --- | --- | --- | --- |
| CC[C@@]1(O)C(=O)OCc2c1cc1n(c2=O)Cc2cc3ccccc3nc2-1 [CPT, camptothecin] | induced |  |  |  |  |  |
| COc1cc([C@@H]2c3cc4c(cc3[C@@H](O[C@@H]3O[C@@H]5CO[C@@H](C)O[C@H]5[C@H](O)[C@H]3O)[C@H]3COC(=O)[C@H]23)OCO4)cc(OC)c1O [etoposide, reference compound] |  | selectively sensitized | selectively sensitized | did not induce cell death | induced a limited cell death | induced a limited cell death |
